Several values for one entry are separate records, joined by “and”; a condition that tells them apart may be missing. Equal values may be shown once.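 Where inhibition never reached the appropriate level, the endpoint shown equals the highest concentration tested. Otherwise, values were interpolated linearly from a five-concentration, 48-hour dose response in 96-well plates. Here, GI50 denotes the concentration required for 50% inhibition of growth. At the TGI there is no net growth.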
How the values were obtained:
Assay in all cases: inhibition of tumour cell growth, NCI panel, 48 h
MOLT-4 leukemia = tested on: MOLT-4 leukemia
EKVX NSCLC = tested on: EKVX NSCLC
A549 NSCLC = tested on: A549 NSCLC
HCT-15 colon = tested on: HCT-15 colon
786-0 renal = tested on: 786-0 renal
COLO 205 colon = tested on: COLO 205 colon
U251 CNS = tested on: U251 CNS
NCI-H460 lung = tested on: NCI-H460 lung
UACC-257 melanoma = tested on: UACC-257 melanoma
ACHN renal = tested on: ACHN renal

Question: For `COC(=O)[C@]1(C)CCC[C@@]2(C)C1CCC1=CC3(C(C)C)CCC12OO3` (stereo partly specified), which TGI (MOLT-4 leukemia) is on record?
Answer: > 100 µM

Question: And the TGI (EKVX NSCLC)?
Answer: > 100 µM

Question: What about the TGI (A549 NSCLC) of the same compound?
Answer: > 100 µM

Question: And the TGI (HCT-15 colon)?
Answer: > 100 µM

Question: What about the TGI (786-0 renal) of the same compound?
Answer: > 100 µM

Question: And the TGI (COLO 205 colon)?
Answer: > 100 µM

Question: And the TGI (U251 CNS)?
Answer: > 100 µM

Question: What about the TGI (NCI-H460 lung) of the same compound?
Answer: > 100 µM

Question: And the TGI (UACC-257 melanoma)?
Answer: > 100 µM

Question: What about the TGI (ACHN renal) of the same compound?
Answer: > 100 µM

Question: With `C[C@H]1[C@H](C)CC[C@]2(C(=O)O)CC[C@]3(C)C(=CC[C@@H]4[C@@]5(C)C/C(=C/c6ccco6)C(=O)C(C)(C)[C@@H]5CC[C@]43C)[C@H]12` as the compound, how does the GI50 (MOLT-4 leukemia) read?
Answer: 3.17 µM

Question: And the TGI (MOLT-4 leukemia)?
Answer: 14 µM

Question: What about the GI50 (EKVX NSCLC) of the same compound?
Answer: 3.69 µM

Question: And the TGI (EKVX NSCLC)?
Answer: 15.4 µM

Question: What about the GI50 (A549 NSCLC) of the same compound?
Answer: 3.71 µM

Question: What about the TGI (A549 NSCLC) of the same compound?
Answer: 16.8 µM

Question: What about the GI50 (HCT-15 colon) of the same compound?
Answer: 2.95 µM

Question: What about the TGI (HCT-15 colon) of the same compound?
Answer: 12.1 µM

Question: And the GI50 (786-0 renal)?
Answer: 4.09 µM

Question: And the TGI (786-0 renal)?
Answer: 19.1 µM

Question: And the GI50 (COLO 205 colon)?
Answer: 3.6 µM

Question: What about the TGI (COLO 205 colon) of the same compound?
Answer: 15.1 µM

Question: What about the GI50 (U251 CNS) of the same compound?
Answer: 4.27 µM

Question: What about the TGI (U251 CNS) of the same compound?
Answer: 17 µM

Question: What about the GI50 (NCI-H460 lung) of the same compound?
Answer: 3.37 µM

Question: And the TGI (NCI-H460 lung)?
Answer: 11.9 µM

Question: What about the GI50 (UACC-257 melanoma) of the same compound?
Answer: 6.49 µM

Question: What about the TGI (UACC-257 melanoma) of the same compound?
Answer: 29.1 µM

Question: What about the GI50 (ACHN renal) of the same compound?
Answer: 3.6 µM

Question: And the TGI (ACHN renal)?
Answer: 13.5 µM

Question: What does the source list for `Cc1cc(O)cc2c1O[C@@]1(C)CCC3[C@@]4(C)CC[C@H](O)C(C)(C)C4CC[C@@]3(C)[C@H]1C2` (stereo partly specified)?
Answer: TGI (MOLT-4 leukemia): 4 µM; TGI (EKVX NSCLC): 31.4 µM; TGI (A549 NSCLC): 19.6 µM; TGI (HCT-15 colon): 12.7 µM; TGI (786-0 renal): 4.72 µM; TGI (COLO 205 colon): 33.4 µM; TGI (U251 CNS): 11.5 µM; TGI (NCI-H460 lung): 17.5 µM; TGI (UACC-257 melanoma): 29.2 µM; TGI (ACHN renal): 19 µM

Question: `COC(=O)C1=C(C(=O)OC)C23C=C(C)C1C2=C(C)C1(CC1)[C@@](C)(O)C3=O` (stereo partly specified) was tested. Which GI50 (MOLT-4 leukemia) did it give?
Answer: 6.62 µM

Question: What about the TGI (MOLT-4 leukemia) of the same compound?
Answer: > 100 µM

Question: And the GI50 (EKVX NSCLC)?
Answer: 0.615 µM

Question: What about the TGI (EKVX NSCLC) of the same compound?
Answer: 5.42 µM

Question: And the GI50 (A549 NSCLC)?
Answer: 0.255 µM

Question: What about the TGI (A549 NSCLC) of the same compound?
Answer: 0.858 µM

Question: What about the GI50 (HCT-15 colon) of the same compound?
Answer: 0.403 µM

Question: What about the TGI (HCT-15 colon) of the same compound?
Answer: 12.8 µM

Question: And the GI50 (786-0 renal)?
Answer: 0.323 µM

Question: What about the TGI (786-0 renal) of the same compound?
Answer: 3.05 µM

Question: And the GI50 (COLO 205 colon)?
Answer: 0.35 µM

Question: And the TGI (COLO 205 colon)?
Answer: 1.62 µM

Question: What about the GI50 (U251 CNS) of the same compound?
Answer: 0.311 µM

Question: And the TGI (U251 CNS)?
Answer: > 42.8 µM

Question: What about the GI50 (NCI-H460 lung) of the same compound?
Answer: 0.203 µM

Question: And the TGI (NCI-H460 lung)?
Answer: 1.19 µM

Question: What about the GI50 (UACC-257 melanoma) of the same compound?
Answer: 0.864 µM

Question: What about the TGI (UACC-257 melanoma) of the same compound?
Answer: 3.82 µM

Question: What about the GI50 (ACHN renal) of the same compound?
Answer: 0.416 µM

Question: And the TGI (ACHN renal)?
Answer: > 100 µM

Question: Which TGI (MOLT-4 leukemia) does the source give for `O=C(COc1ccccc1)NS(=O)(=O)c1ccccc1` here?
Answer: > 100 µM

Question: What about the TGI (EKVX NSCLC) of the same compound?
Answer: > 100 µM

Question: And the TGI (A549 NSCLC)?
Answer: > 100 µM

Question: What about the TGI (HCT-15 colon) of the same compound?
Answer: > 100 µM

Question: What about the TGI (786-0 renal) of the same compound?
Answer: > 100 µM

Question: What about the TGI (COLO 205 colon) of the same compound?
Answer: > 100 µM

Question: What about the TGI (U251 CNS) of the same compound?
Answer: > 100 µM

Question: What about the TGI (NCI-H460 lung) of the same compound?
Answer: > 100 µM

Question: And the TGI (UACC-257 melanoma)?
Answer: > 100 µM

Question: And the TGI (ACHN renal)?
Answer: > 100 µM

Question: Which results are given for `NC1=N/C(=C2/CCNC(=O)c3[nH]c(Br)cc32)C(=O)N1`?
Answer: TGI (MOLT-4 leukemia): > 52.6 µM; TGI (EKVX NSCLC): > 100 µM; TGI (A549 NSCLC): > 100 µM; TGI (HCT-15 colon): > 100 µM; TGI (786-0 renal): > 61.4 µM; GI50 (COLO 205 colon): 12.6 µM and 44.3 µM; TGI (COLO 205 colon): > 100 µM; TGI (U251 CNS): > 100 µM; TGI (NCI-H460 lung): > 100 µM; TGI (UACC-257 melanoma): > 100 µM; TGI (ACHN renal): > 100 µM

From PubChem BioAssay (NCI)
